Assay results reported in publication PMC6268181, “Synthesis of Novel IP Agonists via N-Aminoethyl Cyclic Amines Prepared by Decarboxylative Ring-Opening Reactions” (Molecules, 2012).
Structures can show the parent of a compound that is named as a salt.

Target: T1, human IP receptor (PGI2 receptor) (Homo sapiens, UniProt P43119)
T1 construct: gene PTGIR
Test: competitive binding assay with membrane fractions of CHO or COS-7 cells expressing the receptor; also cAMP increase in COS-7 cells expressing human IP

T1 sequence (P43119 1-383): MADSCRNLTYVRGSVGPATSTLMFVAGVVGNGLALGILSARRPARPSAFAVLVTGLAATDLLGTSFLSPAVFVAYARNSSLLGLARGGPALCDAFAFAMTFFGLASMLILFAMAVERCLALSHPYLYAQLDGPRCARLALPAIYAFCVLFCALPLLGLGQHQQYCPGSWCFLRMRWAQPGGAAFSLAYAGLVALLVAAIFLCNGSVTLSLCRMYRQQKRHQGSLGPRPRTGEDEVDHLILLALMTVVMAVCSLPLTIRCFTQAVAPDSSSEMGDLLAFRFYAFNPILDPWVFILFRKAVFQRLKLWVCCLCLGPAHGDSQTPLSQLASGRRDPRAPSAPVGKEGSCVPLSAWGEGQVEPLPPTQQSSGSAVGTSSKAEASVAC

Ki: 310 nM
Compound: O=C(O)COC1CCN(CCN(C(=O)c2ccc3c(c2)OCO3)c2ccc(Cl)cc2)CC1 [compound 2, 2-((1-(2-(N-(4-Chlorophenyl)benzo[d][1,3]dioxole-5-carboxamido)ethyl)piperidin-4-yl)oxy)acetic acid phosphoric acid salt]
